Measurements taken from BigSolDB 2.1.

Fc1c(I)c(F)c(I)c(F)c1I
Details | solubility (mole fraction)
in 1,2-dichloroethane, 290.15 K | 2.33e-05
in 1,2-dichloroethane, 295.15 K | 4.22e-05
in 1,2-dichloroethane, 299.15 K | 6.13e-05
in 1,2-dichloroethane, 302.15 K | 8.17e-05
in 1,2-dichloroethane, 305.15 K | 0.000106
in 1,2-dichloroethane, 308.15 K | 0.000131
in 1,2-dichloroethane, 311.15 K | 0.000153
in 1,2-dichloroethane, 314.15 K | 0.000181
in 1,2-dichloroethane, 317.15 K | 0.000207
in 1,2-dichloroethane, 320.15 K | 0.000224
in 1,2-dichloroethane, 325.15 K | 0.000242
in 1,2-dichloroethane, 330.15 K | 0.000263
in 1,4-dioxane, 290.15 K | 0.00028
in 1,4-dioxane, 295.15 K | 0.000334
in 1,4-dioxane, 299.15 K | 0.000387
in 1,4-dioxane, 302.15 K | 0.000413
in 1,4-dioxane, 305.15 K | 0.000456
in 1,4-dioxane, 308.15 K | 0.000506
in 1,4-dioxane, 311.15 K | 0.000553
in 1,4-dioxane, 314.15 K | 0.000593
in 1,4-dioxane, 317.15 K | 0.000641
in 1,4-dioxane, 320.15 K | 0.000697
in 1,4-dioxane, 325.15 K | 0.000773
in 1,4-dioxane, 330.15 K | 0.00088
in THF, 290.25 K | 0.00478
in THF, 295.45 K | 0.00497
in THF, 299.85 K | 0.00511
in THF, 305.15 K | 0.00534
in THF, 310.25 K | 0.00555
in THF, 315.35 K | 0.00578
in THF, 320.15 K | 0.00601
in THF, 326.15 K | 0.0063
in THF, 330.35 K | 0.00648
in acetone, 290.15 K | 2.02e-05
in acetone, 295.15 K | 3.22e-05
in acetone, 299.15 K | 4.55e-05
in acetone, 302.15 K | 5.89e-05
in acetone, 305.15 K | 7.48e-05
in acetone, 308.15 K | 9.01e-05
in acetone, 311.15 K | 0.000107
in acetone, 314.15 K | 0.000127
in acetone, 317.15 K | 0.000144
in acetone, 320.15 K | 0.000162
in acetone, 325.15 K | 0.000182
in acetone, 330.15 K | 0.000202
in acetonitrile, 290.35 K | 0.00382
in acetonitrile, 295.85 K | 0.00415
in acetonitrile, 301.55 K | 0.00469
in acetonitrile, 306.95 K | 0.00536
in acetonitrile, 310.15 K | 0.00568
in acetonitrile, 316.95 K | 0.00636
in acetonitrile, 321.55 K | 0.00722
in acetonitrile, 327.35 K | 0.00842
in acetonitrile, 332.15 K | 0.00917
in ethanol, 290.15 K | 0.00057
in ethanol, 295.15 K | 0.000735
in ethanol, 299.15 K | 0.000874
in ethanol, 302.15 K | 0.000962
in ethanol, 305.15 K | 0.00108
in ethanol, 308.15 K | 0.00119
in ethanol, 311.15 K | 0.00128
in ethanol, 314.15 K | 0.00138
in ethanol, 317.15 K | 0.00149
in ethanol, 320.15 K | 0.0016
in ethanol, 325.15 K | 0.00174
in ethanol, 330.15 K | 0.00193
in ethyl acetate, 290.15 K | 0.000485
in ethyl acetate, 295.15 K | 0.000621
in ethyl acetate, 299.15 K | 0.000756
in ethyl acetate, 302.15 K | 0.00086
in ethyl acetate, 305.15 K | 0.000976
in ethyl acetate, 308.15 K | 0.00107
in ethyl acetate, 311.15 K | 0.00118
in ethyl acetate, 314.15 K | 0.00128
in ethyl acetate, 317.15 K | 0.00136
in ethyl acetate, 320.15 K | 0.00145
in ethyl acetate, 325.15 K | 0.00155
in ethyl acetate, 330.15 K | 0.00167
in isopropanol, 291.25 K | 0.00214
in isopropanol, 296.35 K | 0.00291
in isopropanol, 301.45 K | 0.00369
in isopropanol, 306.45 K | 0.00432
in isopropanol, 311.45 K | 0.00523
in isopropanol, 316.55 K | 0.00598
in isopropanol, 321.45 K | 0.00681
in isopropanol, 326.85 K | 0.00745
in isopropanol, 331.55 K | 0.00802
in methanol, 290.15 K | 2.24e-05
in methanol, 295.15 K | 3.71e-05
in methanol, 299.15 K | 5.15e-05
in methanol, 302.15 K | 6.58e-05
in methanol, 305.15 K | 8.12e-05
in methanol, 308.15 K | 9.61e-05
in methanol, 311.15 K | 0.00011
in methanol, 314.15 K | 0.000121
in methanol, 317.15 K | 0.000131
in methanol, 320.15 K | 0.00014
in methanol, 325.15 K | 0.00015
in methanol, 330.15 K | 0.000154
in n-hexane, 289.25 K | 0.0059
in n-hexane, 293.55 K | 0.00643
in n-hexane, 298.85 K | 0.00732
in n-hexane, 303.85 K | 0.00818
in n-hexane, 308.95 K | 0.00908
in n-hexane, 313.75 K | 0.0101
in n-hexane, 318.55 K | 0.0116
in n-hexane, 324.25 K | 0.0134
in n-hexane, 329.35 K | 0.0149
in n-propanol, 291.25 K | 0.00216
in n-propanol, 296.35 K | 0.00274
in n-propanol, 301.35 K | 0.00325
in n-propanol, 306.35 K | 0.00366
in n-propanol, 311.65 K | 0.00417
in n-propanol, 316.55 K | 0.00482
in n-propanol, 321.55 K | 0.00531
in n-propanol, 326.45 K | 0.00585
in n-propanol, 331.45 K | 0.00643
in toluene, 290.15 K | 0.000169
in toluene, 295.15 K | 0.000217
in toluene, 299.15 K | 0.000261
in toluene, 302.15 K | 0.000294
in toluene, 305.15 K | 0.000329
in toluene, 308.15 K | 0.000368
in toluene, 311.15 K | 0.000404
in toluene, 314.15 K | 0.000444
in toluene, 317.15 K | 0.000479
in toluene, 320.15 K | 0.000515
in toluene, 325.15 K | 0.000573
in toluene, 330.15 K | 0.000623
